The assay addresses peripheral (ω3) benzodiazepine (BZ) receptor (Rattus norvegicus, UniProt P16257). Briefly: BZω3 (peripheral-type) benzodiazepine receptor binding assay.
Protocol: Experiment 1: Central (ω1, ω2) and peripheral (ω3) benzodiazepine (BZ) receptor binding assays
BZω1 and BZω2 receptor binding assays were carried out according to the method of Stephens, D. N. et al. [cf.
Receptor membrane fractions for ω1, ω2 and ω3 were prepared from the cerebellum (ω1), spinal cord (ω1) or kidney (ω3) in 7-8 week old male rats of Wistar strain by the procedure described below.
After the cerebellum or spinal cord was homogenized with 20 volumes of ice-cold 50 mM Tris-citrate buffer (pH 7.1), the homogenate was centrifuged for 15 minutes at 40,000 g. The pellet obtained was washed 4 times by the same procedure, frozen and stored for 24 hours at -60° C. The resulting pellet, after being thawed, washed with the buffer and centrifuged, was suspended in the buffer I for the binding assay (50 mM Tris-HCl buffer containing 120 mM NaCl, 5 mM KCl, 2 mM CaCl2 and 1 mM MgCl2 ; pH 7.4) and the suspension thus obtained (containing 1 g wet tissue/40 ml) was used for the BZω1 and BZω2 receptor binding assays. On the other hand, the kidney was homogenized with 20 volumes of the ice-cold buffer II for the binding assay (50 mM Na--K phosphate buffer containing 100 mM NaCl; pH 7.4), filtered through 4 sheets of gauze, and centrifuged for 20 minutes at 40,000 g. The pellet obtained was suspended in the buffer II and the suspension (containing 1 g wet tissue/100 ml) was used for the binding assay as BZω3 receptor membrane source.
Flumazenil (final concentration: 0.3 nM for (ω1 and 1 nM for ω2) and flunitrazepam (final concentration: 10 μM) were used for the BZω1 or BZω2 receptor binding assays as the isotope-labeled and unlabeled ligands, respectively. For the BZω3 receptor binding assay, [^3 H] 4'-chlorodiazepam (7-chloro-1,3-dihydro-1-methyl-5-(4-chlorophenyl)-2H-1,4-benzodiazepin-2-one) (final concentration: 0.5 nM) and diazepam (final concentration: 100 μM) were used as the isotope-labeled and unlabeled ligands, respectively. Incubation was performed for 30 minutes at 37° C. in the BZω1 or BZω2 receptor binding assays, and for 150 minutes at 0° C. in the BZω3 receptor binding assay. The BZω1 or BZω2 receptor binding assays were carried out in the presence of bicuculline (final concentration: 100 μM).
The binding assay was performed by the following procedure. After adding each test compound at certain known concentrations, a [^3 H] ligand and the buffer I or II to each test tube, each assay was started by addition of membrane preparation (total volume of 1 ml). After incubation, the assay was terminated by filtration with suction through a Whatman GF/B glass fiber filter using a cell harvester (Brandel, USA). The filters were rapidly washed 3 times with 5 ml of ice-cold 50 mM Tris-HCl buffer (pH 7.7) for ω1 and ω2, or the buffer II forω3, and transferred to scintillation vials containing 10 ml liquid scintillation cocktail (ACS-II, Amersham, USA). After a few hours, retained radioactivity was counted by a liquid scintillation spectrometer. Specific binding of [^3 H] ligands was calculated as the difference between amounts of radioactivity bound in the presence and absence of excess unlabeled ligands.
Compound `CCCCN(CCCC)C(=O)CNc1nc(-c2ccc(Cl)cc2)nc(C)c1C` [Example 15] showed a half-inhibitory concentration (IC50) of 3.86 nM. With `COc1ccc(-c2nc(C)c(C)c(NCC(=O)N(C)c3ccccc3)n2)cc1` [Example 26], the half-maximal inhibitory concentration (IC50) was found to be 0.28 nM. As for `Cc1nc(-c2ccc(C(F)(F)F)cc2)nc(NCC(=O)N(C)c2ccccc2)c1C` [Example 27], the figure is 0.11 nM; as for `COc1ccc(N(C)C(=O)CNc2nc(-c3ccccc3)nc(C)c2C)cc1` [Example 41], 2.53 nM.

For `CCN(C(=O)CNc1nc(-c2ccc(C(F)(F)F)cc2)nc(C)c1C)c1ccccc1` [Example 49], the IC50 is 0.23 nM. The compound `CCN(C(=O)CNc1nc(-c2ccccc2)nc(C)c1C)c1ccc(Cl)cc1` [Example 51] returned an IC50 of 0.32 nM. As to `CCCCN(C(=O)CNc1nc(-c2ccccc2)nc(C)c1C)c1ccccc1` [Example 57], the IC50 is 5.39 nM. As for `Cc1nc(-c2ccc(Cl)cc2)nc(NCC(=O)N2CC(C)OC(C)C2)c1C` (centres unmarked) [Example 68, 4-[2-(4-Chlorophenyl)-5,6-dimethyl-4-pyrimidinylamino]acetyl-2,6-dimethylmorpholine], the figure is 2.19 nM. The same measure for `CCCN(CCC)C(=O)C(CO)Nc1nc(-c2ccccc2)nc(C)c1C` (centres unmarked) [Example 69, 3-hydroxy-2-(5,6-dimethyl-2-phenyl-4-pyrimidinylamino)-N,N-dipropylpropanamide]: 2.75 nM; for `CCCN(CCC)C(=O)CN(C)c1nc(-c2ccccc2)nc(C)c1C` [Example 70, 2-[methyl-(5,6-dimethyl-2-phenyl-4-pyrimidinyl)amino]-N,N-dipropylacetamide]: 1.12 nM; for `Cc1nc(-c2ccccc2)nc(N(C)CC(=O)N(C)c2ccc(Cl)cc2)c1C` [Example 76]: 1.33 nM. The same measure for `CCCN(CCC)C(=O)C1Cc2ccccc2N1c1nc(-c2ccccc2)nc(C)c1C` (centres unmarked) [Example 81, 2,3-dihydro-1-(5,6-dimethyl-2-phenyl-4-pyrimidinyl)-N,N-dipropyl-1H-indole-2-carboxamide]: 6.9 nM; for `CCc1c(C)nc(-c2ccccc2)nc1NCC(=O)N(C)c1ccc(Cl)cc1` [Example 84, N-(4-chlorophenyl)-2-(5-ethyl-6-methyl-2-phenyl-4-pyrimidinylamino)-N-methylacetamide]: 2.04 nM. `CCCN(CCC)C(=O)CNc1nc(-c2ccccc2)nc(CC)c1C` [Example 85, 2-(6-ethyl-5-methyl-2-phenyl-4-pyrimidinylamino)-N,N-dipropylacetamide] displayed an IC50 of 0.18 nM. The same measure for `CCCN(CCC)C(=O)CNc1nc(-c2ccccc2)nc(-c2ccccc2)c1C` [Example 97]: 2.27 nM; for `CCCN(CCC)C(=O)CNc1nc(-c2ccccc2)nc2c1CCCC2` [Example 102, 2-(5,6,7,8-tetrahydro-2-phenyl-4-quinazolinylamino)-N,N-dipropylacetamide]: 3.31 nM; for `CCCN(CCC)C(=O)CNc1nc(-c2ccc(F)cc2)nc2c1CCCC2` [Example 103]: 2.9 nM. The same measure for `CCCN(CCC)C(=O)CNc1nc(-c2ccc(Cl)cc2)nc2c1CCCC2` [Example 104]: 3.44 nM. The same measure for `CCCCN(CCCC)C(=O)CNc1nc(-c2ccccc2)nc2c1CCCC2` [Example 105]: 4.18 nM.

Regarding `CCCCN(CCCC)C(=O)CNc1nc(-c2ccc(F)cc2)nc2c1CCCC2` [Example 106], the concentration for half-maximal inhibition (IC50) was 4.24 nM. `CCCCN(CCCC)C(=O)CNc1nc(-c2ccc(Cl)cc2)nc2c1CCCC2` [Example 107] yielded an IC50 of 4.23 nM. In the case of `CN(C(=O)CNc1nc(-c2ccccc2)nc2c1CCCC2)c1ccc(Cl)cc1` [Example 108], the IC50 was found to be 1.21 nM. The same measure for `CN(C(=O)CNc1nc(-c2ccc(Cl)cc2)nc2c1CCCC2)c1ccc(Cl)cc1` [Example 109]: 2.09 nM; for `CCCN(CCC)C(=O)CN(C)c1nc(-c2ccccc2)nc2c1CCCC2` [Example 110]: 1.99 nM; for `CN(CC(=O)N(C)c1ccc(Cl)cc1)c1nc(-c2ccccc2)nc2c1CCCC2` [Example 111]: 2.05 nM. For `CCCN(CCC)C(=O)C(CO)Nc1nc(-c2ccccc2)nc2c1CCCC2` (centres unmarked) [Example 118, 3-hydroxy-2-(5,6,7,8-tetrahydro-2-phenyl-4-quinazolinylamino)-N,N-dipropylpropanamide], the IC50 was 1.07 nM. On to `CCCN(CCC)C(=O)C1CCCN1c1nc(-c2ccccc2)nc2c1CCCC2` (centres unmarked) [Example 119, 1-(5,6,7,8-Tetrahydro-2-phenyl-4-quinazolinyl)-N,N-dipropyl-2-pyrrolidinecarboxamide], for which the IC50 came out at 1.45 nM. As for `CN(C(=O)C1CCCN1c1nc(-c2ccccc2)nc2c1CCCC2)c1ccc(Cl)cc1` (centres unmarked) [Example 120, N-(4-Chlorophenyl)-1-(5,6,7,8-tetrahydro-2-phenyl-4-quinazolinyl)-N-methyl-2-pyrrolidinecarboxamide 1/4 hydrate], the figure is 1.63 nM; as for `CN(C(=O)CNc1nc(-c2ccccc2)ncc1N)c1ccccc1` [Example 124, 2-(5-amino-2-phenyl-4-pyrimidinylamino)-N-methyl-N-phenylacetamide], 5.35 nM.

With `CCCN(CCC)C(=O)CNc1nc(-c2ccccc2)ncc1CO` [Example 127, 2-(5-hydroxymethyl-2-phenyl-4-pyrimidinylamino)-N,N-dipropylacetamide], the IC50 was 4.35 nM. As for `CCCN(CCC)C(=O)COc1nc(-c2ccc(F)cc2)nc2c1CCCC2` [Example 128, 2-[2-(4-fluorophenyl)-5,6,7,8-tetrahydro-4-quinazolinyloxy]-N,N-dipropylacetamide], the figure is 0.79 nM. As for `CCCN(CCC)C(=O)COc1nc(-c2cccc(Cl)c2)nc2c1CCCC2` [Example 130], the figure is 1.31 nM; as for `CCCN(CCC)C(=O)COc1nc(-c2ccc(Cl)cc2)nc2c1CCCC2` [Example 131], 0.89 nM. Compound `CCCCN(CCCC)C(=O)COc1nc(-c2ccccc2)nc2c1CCCC2` [Example 133] came in with an IC50 of 2.2 nM. The same measure for `CCCCN(CCCC)C(=O)COc1nc(-c2ccc(F)cc2)nc2c1CCCC2` [Example 134]: 3.07 nM; for `CCCCN(CCCC)C(=O)COc1nc(-c2ccc(Cl)cc2)nc2c1CCCC2` [Example 135]: 3.17 nM; for `CCCN(CCC)C(=O)COc1nc(-c2ccc(Cl)cc2)nc(C)c1C` [Example 137]: 0.93 nM. The same measure for `CCCN(CCC)C(=O)COc1nc(-c2ccc(F)cc2)nc(C)c1C` [Example 138]: 0.53 nM. The same measure for `CCCN(CCC)C(=O)COc1nc(-c2ccc(C(F)(F)F)cc2)nc(C)c1C` [Example 141]: 0.11 nM; for `CCCN(CCC)C(=O)COc1nc(-c2ccc([N+](=O)[O-])cc2)nc(C)c1C` [Example 142]: 0.08 nM; for `Cc1nc(-c2ccccc2)nc(OCC(=O)N(C)c2ccccc2)c1C` [Example 143]: 1.4 nM. In turn, `Cc1nc(-c2cccc(Cl)c2)nc(OCC(=O)N(C)c2ccccc2)c1C` [Example 145] yielded a half-maximal inhibitory concentration (IC50) of 1.6 nM. As for `Cc1nc(-c2ccc(C(F)(F)F)cc2)nc(OCC(=O)N(C)c2ccccc2)c1C` [Example 147], the figure is 0.52 nM; as for `Cc1nc(-c2ccccc2)nc(OCC(=O)N(C)c2ccc(Cl)cc2)c1C` [Example 149], 1.14 nM; as for `CCN(C(=O)COc1nc(-c2ccccc2)nc(C)c1C)c1ccccc1` [Example 151], 0.58 nM.

For the compound `CCN(C(=O)COc1nc(-c2ccc(C(F)(F)F)cc2)nc(C)c1C)c1ccccc1` [Example 155], the half-maximal inhibitory concentration (IC50) came to 0.76 nM. As for `CCc1c(C)nc(-c2ccccc2)nc1OCC(=O)N(C)c1ccc(Cl)cc1` [Example 156], the figure is 4.96 nM; as for `CCCN(CCC)C(=O)COc1cc(-c2ccccc2)nc(-c2ccccc2)n1` [Example 158], 4.07 nM. `CCCN(CCC)C(=O)COc1nc(-c2ccccc2)nc(-c2ccccc2)c1C` [Example 159] had a half-maximal inhibitory concentration (IC50) of 2 nM. Regarding `CCCN(CCC)C(=O)COc1cc(C(F)(F)F)nc(-c2ccccc2)n1` [Example 160], the concentration for half-maximal inhibition (IC50) came to 4.3 nM. As for `CCCN(CCC)C(=O)COc1nc(-c2ccccc2)nc2c1CCCC2` [Example 161], the figure is 1.05 nM; as for `CN(C(=O)COc1nc(-c2ccccc2)nc2c1CCCC2)c1ccc(Cl)cc1` [Example 162], 1.19 nM. As for `CN(C(=O)COc1nc(-c2ccc(Cl)cc2)nc2c1CCCC2)c1ccc(Cl)cc1` [Example 163], the figure is 2.64 nM; as for `CCN(C(=O)COc1nc(-c2ccc([N+](=O)[O-])cc2)nc(C)c1C)c1ccccc1` [Example 164, N-ethyl-2-[5,6-dimethyl-2-(4-nitrophenyl)-4-pyrimidinyloxy]-N-phenylacetamide], 0.29 nM; as for `CCCN(CCC)C(=O)COc1cc(C)nc(-c2ccccc2)n1` [Example 166, 2-(6-methyl-2-phenyl-4-pyrimidinyloxy)-N,N-dipropylacetamide], 5.4 nM.

The compound `CCCN(CCC)C(=O)COc1nc(-c2ccccc2)nc(C)c1Cl` [Example 167, 2-(5-chloro-6-methyl-2-phenyl-4-pyrimidinyloxy)-N,N-dipropylacetamide] returned a half-inhibitory concentration (IC50) of 0.79 nM. Turning to `CCCN(CCC)C(=O)COc1nc(-c2ccccc2)nc(C)c1Br` [Example 168, 2-(5-bromo-6-methyl-2-phenyl-4-pyrimidinyloxy)-N,N-dipropylacetamide], the half-maximal inhibitory concentration (IC50) came out at 0.99 nM. `CCCN(CCC)C(=O)C(C)Oc1nc(-c2ccccc2)nc2c1CCCC2` (centres unmarked) [Example 169, 2-(5,6,7,8-tetrahydro-2-phenyl-4-quinazolinyloxy)-N,N-dipropylpropanamide] had an IC50 of 1.15 nM. As for `Cc1nc(-c2ccccc2)nc(OCC(=O)N2CC(C)CC(C)C2)c1C` (centres unmarked) [Example 170, 3,5-dimethyl-1-(5,6-dimethyl-2-phenyl-4-pyrimidinyloxy)acetylpiperidine], the figure is 0.99 nM; as for `CCN(CC)C(=O)COc1nc(-c2ccccc2)nc(C)c1C` [Example 175], 1.9 nM. The same measure for `CCN(CC)C(=O)COc1nc(-c2ccccc2)nc2c1CCCC2` [Example 179]: 4.3 nM; for `CN(C(=O)COc1nc(-c2ccccc2)nc2c1CCCC2)c1ccccc1` [Example 180]: 1.65 nM.

Usually IC50 stands for the concentration needed to halve the response being measured. Higher therefore signals lower potency.
